Target: T1, ZAP-70 (Homo sapiens, UniProt P43403)
T1 sequence (P43403 1-619): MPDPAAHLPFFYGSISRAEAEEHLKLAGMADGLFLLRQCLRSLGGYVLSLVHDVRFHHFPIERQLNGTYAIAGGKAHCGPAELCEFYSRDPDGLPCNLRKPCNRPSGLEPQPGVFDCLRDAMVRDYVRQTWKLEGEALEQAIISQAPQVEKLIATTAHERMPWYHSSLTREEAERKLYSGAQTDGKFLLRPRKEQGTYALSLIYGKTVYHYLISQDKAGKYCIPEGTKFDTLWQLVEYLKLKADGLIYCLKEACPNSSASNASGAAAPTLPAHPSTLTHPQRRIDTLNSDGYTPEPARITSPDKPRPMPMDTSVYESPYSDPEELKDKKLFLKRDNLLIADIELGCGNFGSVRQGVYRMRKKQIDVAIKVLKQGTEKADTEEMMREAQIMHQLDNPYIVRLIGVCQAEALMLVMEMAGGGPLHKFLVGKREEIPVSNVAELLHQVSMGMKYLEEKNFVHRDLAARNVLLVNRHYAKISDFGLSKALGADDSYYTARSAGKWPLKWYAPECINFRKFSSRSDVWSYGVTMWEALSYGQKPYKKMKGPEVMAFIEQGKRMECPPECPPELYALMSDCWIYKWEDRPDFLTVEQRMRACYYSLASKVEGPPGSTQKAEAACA
Assay: ZAP-70 inhibition assay (standard coupled enzyme assay)
Format: biochemical
Conditions: 100 μM ATP, 20 μM poly-4EY peptide, 30° C., 60 nM ZAP-70
Procedure: Compounds were screened for their ability to inhibit ZAP-70 using a standard coupled enzyme assay (Fox et al., Protein Sci. 1998, 7, 2249). Assays were carried out in a mixture of 100 mM HEPES (pH 7.5), 10 mM MgCl2, 25 mM NaCl, 2 mM DTT and 3% DMSO. Final substrate concentrations in the assay were 100 μM ATP (Sigma Chemicals) and 20 μM peptide (poly-4EY, Sigma Chemicals). Assays were carried out at 30° C. and 60 nM ZAP-70. Final concentrations of the components of the coupled enzyme system were 2.5 mM phosphoenolpyruvate, 300 μM NADH, 30 μg/ml pyruvate kinase and 10 μg/ml lactate dehydrogenase.
An assay stock buffer solution was prepared containing all of the reagents listed above, with the exception of ZAP-70 and the test compound of interest of the present invention. 55 μl of the stock solution was placed in a 96 well plate followed by addition of 2 μl of DMSO stock containing serial dilutions of the test compound of the present invention (typically starting from a final concentration of 15 μM). The plate was preincubated for 10 minutes at 30° C. and the reaction initiated by addition of 10 μl of enzyme (final concentration 60 nM). Initial reaction rates were determined with a Molecular Devices SpectraMax Plus plate reader over a 15 minute time course. Ki data was calculated from non-linear regression analysis using the Prism software package (GraphPad Prism version 3.0a for Macintosh, GraphPad Software, San Diego Calif., USA).

| SMILES | Ki |
| --- | --- |
| Cc1cc(C)cc(Nc2nccc(-c3nc4ccccc4s3)n2)c1 [Example I-63] | ≤ 5 µM |
| Cc1cc(C)cc(Nc2nccc(-c3ncc(C(=O)Nc4ccccc4)s3)n2)c1 [Example I-137] | ≤ 5 µM |
| Cc1cnc(-c2ccnc(Nc3ccc4ncsc4c3)n2)s1 [Example I-135] | ≤ 5 µM |
| COc1cc(Nc2nccc(-c3ncc(CO)s3)n2)cc(C(F)(F)F)c1 [Example I-83] | ≤ 5 µM |
| COc1ccc(Nc2nccc(-c3ncc(C)s3)n2)cc1O [Example I-17] | ≤ 5 µM |
| COCc1cc(N)cc(Nc2nccc(-c3ncc(C)s3)n2)c1 [Example I-156] | ≤ 5 µM |
| OCc1csc(-c2ccnc(Nc3cccc(OCc4ccccc4)c3)n2)n1 [Example I-73] | ≤ 5 µM |
| Cc1cc(C)cc(Nc2nccc(-c3ncc(N4CCCCC4)s3)n2)c1 [Example I-74] | ≤ 5 µM |
| Cc1cnc(-c2ccnc(Nc3ccc4[nH]nnc4c3)n2)s1 [Example I-128] | ≤ 5 µM |
| Cc1cnc(-c2ccnc(Nc3ccc(F)cc3F)n2)s1 [Example I-97] | ≤ 5 µM |
| Cc1cc(C)cc(Nc2nccc(-c3ncc(CNc4cccnc4)s3)n2)c1 [Example I-124] | ≤ 5 µM |
| Cc1cc(C)cc(Nc2nccc(-c3ncc(CN(C)CCO)s3)n2)c1 [Example I-87] | ≤ 5 µM |
| Cc1cnc(-c2ccnc(Nc3cccc(C(N)=O)c3)n2)s1 [Example I-15] | ≤ 5 µM |
| CC(=O)c1cccc(Nc2nccc(-c3ncc(C)s3)n2)c1 [Example I-30] | ≤ 5 µM |
| COCc1cc(=O)oc2cc(Nc3nccc(-c4ncc(C)s4)n3)ccc12 [Example I-22] | ≤ 5 µM |
| Cc1cnc(-c2ccnc(Nc3ccncc3)n2)s1 [Example I-152] | ≤ 5 µM |
| Cc1cnc(-c2ccnc(Nc3ccc(N)cc3)n2)s1 [Example I-140] | ≤ 5 µM |
| Cc1cnc(-c2ccnc(Nc3cccc(S(=O)(=O)c4cccc(N)c4)c3)n2)s1 [Example I-6] | ≤ 5 µM |
| Cc1cnc(-c2ccnc(Nc3cccc(CO)c3)n2)s1 [Example I-111] | ≤ 5 µM |
| Cc1cnc(-c2ccnc(Nc3ccc4c(c3)CCN4S(C)(=O)=O)n2)s1 [Example I-20] | ≤ 5 µM |
| COc1cccc(Nc2nccc(-c3ncc(C)s3)n2)c1 [Example I-27] | ≤ 5 µM |
| Cc1cnc(-c2ccnc(Nc3ccc4[nH]c(C(F)(F)F)nc4c3)n2)s1 [Example I-1] | ≤ 5 µM |

| SMILES | Ki |
| --- | --- |
| COc1cc(Nc2nccc(-c3ncc(C)s3)n2)ccc1-c1ccccc1 [Example I-19] | ≤ 5 µM |
| COc1cc(Nc2nccc(-c3ncc(Cl)s3)n2)cc(OC)c1OC [Example I-143] | ≤ 5 µM |
| CCCc1ccccc1Nc1nccc(-c2ncc(C)s2)n1 [Example I-103] | ≤ 5 µM |
| COc1ccc(Nc2nccc(-c3ncc(C)s3)n2)cc1OC [Example I-2] | ≤ 5 µM |
| CNC(=O)c1cnc(-c2ccnc(Nc3cc(C)cc(C)c3)n2)s1 [Example I-115] | ≤ 5 µM |
| CSc1cccc(Nc2nccc(-c3ncc(C)s3)n2)c1 [Example I-130] | ≤ 5 µM |
| Cc1cc(C)cc(Nc2nccc(-c3nc(COC(N)=O)cs3)n2)c1 [Example I-77] | ≤ 5 µM |
| COc1cc(Nc2nccc(-c3nc(CO)cs3)n2)cc(C(F)(F)F)c1 [Example I-84] | ≤ 5 µM |
| Cc1cc(C)cc(Nc2nccc(-c3nc(CN)cs3)n2)c1 [Example I-76] | ≤ 5 µM |
| Cc1cc(C)cc(Nc2nccc(-c3ncc(CO)s3)n2)c1 [Example I-43] | ≤ 5 µM |
| Cc1cnc(-c2ccnc(Nc3ccc(NC(=O)OC(C)(C)C)cc3)n2)s1 [Example I-110] | ≤ 5 µM |
| Cc1cnc(-c2ccnc(Nc3cc(N)cc(C(F)(F)F)c3)n2)s1 [Example I-89] | ≤ 5 µM |
| COc1ccc(Nc2nccc(-c3ncc(C)s3)n2)cc1F [Example I-5] | ≤ 5 µM |
| Cc1cnc(-c2ccnc(Nc3ccc(Cl)c(C)c3)n2)s1 [Example I-29] | ≤ 5 µM |
| CC(=O)OCc1cnc(-c2ccnc(Nc3cc(C)cc(C)c3)n2)s1 [Example I-72] | ≤ 5 µM |
| CCN1CCN(Cc2cnc(-c3ccnc(Nc4cc(C)cc(C)c4)n3)s2)CC1 [Example I-47] | ≤ 5 µM |
| CC(=O)OCc1cnc(-c2ccnc(Nc3ccccc3OCc3ccccc3)n2)s1 [Example I-149] | ≤ 5 µM |
| Cc1cnc(-c2ccnc(Nc3ccc4sc(C)nc4c3)n2)s1 [Example I-114] | ≤ 5 µM |
| Cc1cnc(-c2ccnc(Nc3ccccc3Oc3ccccc3)n2)s1 [Example I-95] | ≤ 5 µM |
| COc1cc(Nc2nccc(-c3ncc(C)s3)n2)cc(OC)c1OC [Example I-122] | ≤ 5 µM |
| Cc1cc(C)cc(Nc2nccc(-c3ncc(Br)s3)n2)c1 [Example I-71] | ≤ 5 µM |

Target: SYK (Homo sapiens, UniProt P43405)
Assay: SYK inhibition assay (standard coupled enzyme assay)
Format: biochemical
Conditions: not given
Procedure: Reactions were carried out in 100 mM HEPES (pH 7.5), 10 mM MgCl2, 25 mM NaCl, 1 mM DTT and 1.5% DMSO. Final substrate concentrations in the assay were 200 μM ATP (Sigma chemical Co.) and 4 μM poly Gly-Tyr peptide (Sigma Chemical Co.). Assays were carried out at 30° C. and 200 nM SYK. Final concentrations of the components of the coupled enzyme system were 2.5 mM phosphoenolpyruvate, 300 μM NADH, 30 μg/ml pyruvate kinase and 10 μg/ml lactate dehydrogenase.
An assay stock buffer solution was prepared containing all of the reagents listed above, with the exception of SYK, DTT, and the test compound of interest of the present invention. 56 μl of the test reaction was placed in a 96 well plate followed by the addition of 1 μl of 2 mM DMSO stock containing the test compound of the present invnetion (final compound concentration 30 μM).

| SMILES | Ki |
| --- | --- |
| CCOP(=O)(Cc1ccc(Nc2nccc(-c3ncc(C)s3)n2)cc1)OCC [Example I-33] | ≤ 5 µM |
| COc1cc(Nc2nccc(-c3nc(CO)cs3)n2)cc(C(F)(F)F)c1 [Example I-84] | ≤ 5 µM |
| Cc1cc(C)cc(Nc2nccc(-c3ncc(CO)s3)n2)c1 [Example I-43] | ≤ 5 µM |

Same assay, conditions: coupled enzyme assay, 200 μM ATP, 4 μM poly Gly-Tyr peptide, 30° C.; read-out: Ki (SYK)

| SMILES | Ki |
| --- | --- |
| Cc1cc(C)cc(Nc2nccc(-c3nc4ccccc4s3)n2)c1 [Example I-63] | ≤ 5 µM |
| Cc1cc(C)cc(Nc2nccc(-c3ncc(C(=O)Nc4ccccc4)s3)n2)c1 [Example I-137] | ≤ 5 µM |
| Cc1cnc(-c2ccnc(Nc3ccc4ncsc4c3)n2)s1 [Example I-135] | ≤ 5 µM |
| COc1cc(Nc2nccc(-c3ncc(CO)s3)n2)cc(C(F)(F)F)c1 [Example I-83] | ≤ 5 µM |
| Cc1cnc(-c2ccnc(Nc3ccc4c(c3)C(=O)OC4)n2)s1 [Example I-126] | ≤ 5 µM |
| COc1ccc(Nc2nccc(-c3ncc(C)s3)n2)cc1O [Example I-17] | ≤ 5 µM |
| COCc1cc(N)cc(Nc2nccc(-c3ncc(C)s3)n2)c1 [Example I-156] | ≤ 5 µM |
| OCc1csc(-c2ccnc(Nc3cccc(OCc4ccccc4)c3)n2)n1 [Example I-73] | ≤ 5 µM |
| Cc1cc(C)cc(Nc2nccc(-c3ncc(N4CCCCC4)s3)n2)c1 [Example I-74] | ≤ 5 µM |
| Cc1cnc(-c2ccnc(Nc3ccc4[nH]nnc4c3)n2)s1 [Example I-128] | ≤ 5 µM |
| Cc1cnc(-c2ccnc(Nc3ccc(F)cc3F)n2)s1 [Example I-97] | ≤ 5 µM |
| Cc1cc(C)cc(Nc2nccc(-c3ncc(CNc4cccnc4)s3)n2)c1 [Example I-124] | ≤ 5 µM |
| Cc1cc(C)cc(Nc2nccc(-c3ncc(CN(C)CCO)s3)n2)c1 [Example I-87] | ≤ 5 µM |
| Cc1cnc(-c2ccnc(Nc3cccc(C(N)=O)c3)n2)s1 [Example I-15] | ≤ 5 µM |
| CC(=O)c1cccc(Nc2nccc(-c3ncc(C)s3)n2)c1 [Example I-30] | ≤ 5 µM |
| COCc1cc(=O)oc2cc(Nc3nccc(-c4ncc(C)s4)n3)ccc12 [Example I-22] | ≤ 5 µM |
| Cc1cnc(-c2ccnc(Nc3ccncc3)n2)s1 [Example I-152] | ≤ 5 µM |
| Cc1cnc(-c2ccnc(Nc3ccc(N)cc3)n2)s1 [Example I-140] | ≤ 5 µM |
| Cc1cnc(-c2ccnc(Nc3cccc(S(=O)(=O)c4cccc(N)c4)c3)n2)s1 [Example I-6] | ≤ 5 µM |
| Cc1cnc(-c2ccnc(Nc3cccc(CO)c3)n2)s1 [Example I-111] | ≤ 5 µM |
| Cc1cnc(-c2ccnc(Nc3ccc4c(c3)CCN4S(C)(=O)=O)n2)s1 [Example I-20] | ≤ 5 µM |
| COc1cccc(Nc2nccc(-c3ncc(C)s3)n2)c1 [Example I-27] | ≤ 5 µM |
| Cc1cnc(-c2ccnc(Nc3ccc4[nH]c(C(F)(F)F)nc4c3)n2)s1 [Example I-1] | ≤ 5 µM |

| SMILES | Ki |
| --- | --- |
| COc1cc(Nc2nccc(-c3ncc(C)s3)n2)ccc1-c1ccccc1 [Example I-19] | ≤ 5 µM |
| COc1cc(Nc2nccc(-c3ncc(Cl)s3)n2)cc(OC)c1OC [Example I-143] | ≤ 5 µM |
| CCCc1ccccc1Nc1nccc(-c2ncc(C)s2)n1 [Example I-103] | ≤ 5 µM |
| COc1ccc(Nc2nccc(-c3ncc(C)s3)n2)cc1OC [Example I-2] | ≤ 5 µM |
| CNC(=O)c1cnc(-c2ccnc(Nc3cc(C)cc(C)c3)n2)s1 [Example I-115] | ≤ 5 µM |
| Cc1cc(C)cc(Nc2nccc(-c3nc(CN4CCC(O)C4)cs3)n2)c1 (centres unmarked) [Example I-58] | ≤ 5 µM |
| CSc1cccc(Nc2nccc(-c3ncc(C)s3)n2)c1 [Example I-130] | ≤ 5 µM |
| Cc1cc(C)cc(Nc2nccc(-c3nc(COC(N)=O)cs3)n2)c1 [Example I-77] | ≤ 5 µM |
| Cc1cc(C)cc(Nc2nccc(-c3nc(CN)cs3)n2)c1 [Example I-76] | ≤ 5 µM |
| Cc1cnc(-c2ccnc(Nc3ccc(NC(=O)OC(C)(C)C)cc3)n2)s1 [Example I-110] | ≤ 5 µM |
| Cc1cnc(-c2ccnc(Nc3cc(N)cc(C(F)(F)F)c3)n2)s1 [Example I-89] | ≤ 5 µM |
| COc1ccc(Nc2nccc(-c3ncc(C)s3)n2)cc1F [Example I-5] | ≤ 5 µM |
| Cc1cnc(-c2ccnc(Nc3ccc(Cl)c(C)c3)n2)s1 [Example I-29] | ≤ 5 µM |
| CC(=O)OCc1cnc(-c2ccnc(Nc3cc(C)cc(C)c3)n2)s1 [Example I-72] | ≤ 5 µM |
| CCN1CCN(Cc2cnc(-c3ccnc(Nc4cc(C)cc(C)c4)n3)s2)CC1 [Example I-47] | ≤ 5 µM |
| CC(=O)OCc1cnc(-c2ccnc(Nc3ccccc3OCc3ccccc3)n2)s1 [Example I-149] | ≤ 5 µM |
| Cc1cnc(-c2ccnc(Nc3ccc4sc(C)nc4c3)n2)s1 [Example I-114] | ≤ 5 µM |
| Cc1cnc(-c2ccnc(Nc3ccccc3Oc3ccccc3)n2)s1 [Example I-95] | ≤ 5 µM |
| COc1cc(Nc2nccc(-c3ncc(C)s3)n2)cc(OC)c1OC [Example I-122] | ≤ 5 µM |
| Cc1cc(C)cc(Nc2nccc(-c3ncc(Br)s3)n2)c1 [Example I-71] | ≤ 5 µM |
| CC(=O)Nc1ccc(Nc2nccc(-c3ncc(C)s3)n2)cc1 [Example I-157] | ≤ 5 µM |
| Cc1cc(C)cc(Nc2nccc(-c3nc(CNCC(=O)OC(C)(C)C)cs3)n2)c1 [Example I-67] | ≤ 5 µM |
| Cc1cc(Nc2nccc(-c3ncc(C)s3)n2)[nH]n1 [Example I-151] | ≤ 5 µM |
